Experimental findings from patent US9663473B2 (Actelion Pharmaceuticals Ltd, priority 2013, dated 2017) are described below.

Where a name gives a salt, the structure may show the parent alone.

This assay addresses T1, recombinant human ALX receptor (Homo sapiens, UniProt P25090).
T1 construct: expressed in transfected cells; host or cells: HEK293 (HEK293-hALXR-Gα16)
T1 sequence (P25090 1-351): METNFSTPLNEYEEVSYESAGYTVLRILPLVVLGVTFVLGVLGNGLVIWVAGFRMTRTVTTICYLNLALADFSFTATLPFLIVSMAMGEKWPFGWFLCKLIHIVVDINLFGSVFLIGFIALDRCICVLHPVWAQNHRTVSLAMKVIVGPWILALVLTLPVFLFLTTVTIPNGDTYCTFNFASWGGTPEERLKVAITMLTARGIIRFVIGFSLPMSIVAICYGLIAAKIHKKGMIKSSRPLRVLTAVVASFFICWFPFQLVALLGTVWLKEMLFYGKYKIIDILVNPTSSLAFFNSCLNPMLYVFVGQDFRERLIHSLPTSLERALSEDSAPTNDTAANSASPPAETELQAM
The assay can be described thus: Intracellular calcium measurements (FLIPR), ALX receptor agonistic activity. The class given is cell-based. The conditions noted are these: HEK293-hALXR-Gα16 cells, Fluo-4 calcium signal, normalized to WKYMVm 10 nM. As for the experimental part: The ALX receptor agonistic activity of the compounds of formula (I) is determined in accordance with the following experimental method.
Intracellular Calcium Measurements:
Cells expressing recombinant human ALX receptor and the G-protein Gα16 (HEK293-hALXR-Gα16) were grown to 80% confluency in Growing Medium (GM). Cells were detached from culture dishes with a cell dissociation buffer (Invitrogen, 13151-014), and collected by centrifugation at 1′000 rpm at rt for 5 min in Assay Buffer (AB) (equal parts of Hank's BSS (Gibco, 14065-049) and DMEM without Phenol Red (Gibco, 11880-028)). After 60 min incubation at 37° C. under 5% CO2 in AB supplemented with 1 μM Fluo-4 (AM) (Invitrogen, F14202) and 20 mM HEPES (Gibco, 15630-056), the cells were washed and resuspended in AB. They were then seeded onto 384-well FLIPR assay plates (Greiner, 781091) at 50′000 cells in 70 μl per well and sedimented by centrifugation at 1′000 rpm for 1 min. Stock solutions of test compounds were made up at a concentration of 10 mM in DMSO, and serially diluted in AB to concentrations required for activation dose response curves. WKYMVm (Phoenix Peptides) was used as a reference agonist. A FLIPR Tetra instrument (Molecular Devices) was operated according to the manufacturer's standard instructions, adding 4 μl of test compound dissolved at 10 mM in DMSO and diluted prior to the experiment in assay buffer to obtain the desired final concentration. Changes in fluorescence were monitored before and after the addition of test compounds at lex=488 nm and lem=540 nm. Emission peak values above base level after compounds addition were exported after base line subtraction. Values were normalized to high-level control (WKYMVm compound, 10 nM final concentration) after subtraction of the base line value (AB addition).
In general terms: A change in cytosolic calcium serves as a functional read-out for many receptors and channels.

Usually EC50 stands for the concentration at which the effect is half-maximal. Take `COc1ccc(CC(NC(=O)N[C@H](C)c2cccc(Cl)c2)c2nc3ccccc3[nH]2)cc1` (stereo partly drawn) [Example 41, 1-(1-(1H-Benzo[d]imidazol-2-yl)-2-(4-methoxyphenyl)ethyl)-3-((R)-1-(3-chlorophenyl)ethyl)urea]: the concentration giving a half-maximal response (EC50) was determined as 0.776 µM. The result for `CCOC(=O)[C@@H]1CCCC[C@H]1NC(=O)N[C@H](Cc1ccc(OC)cc1)c1nc2ccccc2[nH]1` (relative stereo) [Example 161, (1R*,2R*)-Ethyl 2-(3-((R)-1-(1H-benzo[d]imidazol-2-yl)-2-(4-methoxyphenyl)ethyl)ureido)cyclohexanecarboxylate] reads 0.0006 µM; that for `COCCNC(=O)N[C@H](Cc1ccc(OC)cc1)c1nc2ccccc2[nH]1` [Example 59, (R)-1-(1-(1H-Benzo[d]imidazol-2-yl)-2-(4-methoxyphenyl)ethyl)-3-(2-methoxyethyl)urea hydrochloride], 0.316 µM; that for `COc1cc(F)c(CC(NC(=O)N[C@H]2CC[C@H](O)CC2)c2nc3cc(F)ccc3[nH]2)c(F)c1` (single isomer, unassigned; ent-1) [Example 366, 1-(2-(2,6-Difluoro-4-methoxyphenyl)-1-(5-fluoro-1H-benzo[d]imidazol-2-yl)ethyl)-3-(trans-4-hydroxycyclohexyl)urea (ent-1)], 0.0004 µM. In the case of `COc1ccc(CC(NC(=O)N[C@H]2CC[C@H](O)CC2)c2nc3ccccc3[nH]2)c(F)c1` (relative stereo) [Example 210, 1-(1-(1H-Benzo[d]imidazol-2-yl)-2-(2-fluoro-4-methoxyphenyl)ethyl)-3-(trans-4-hydroxycyclohexyl)urea] it was 0.0019 µM.

With `COc1ccc(C[C@@H](NC(=O)NC2CC3CCC2C3)c2nc3ccccc3[nH]2)cc1` (stereo partly drawn) [Example 25, 1-((R)-1-(1H-Benzo[d]imidazol-2-yl)-2-(4-methoxyphenyl)ethyl)-3-(bicyclo[2.2.1]heptan-2-yl)urea], the EC50 was 0.0097 µM. In the case of `O=C(NC(Cc1ccc(Br)c(F)c1)c1nc2ccccc2[nH]1)N[C@H]1CC[C@H](O)CC1` (single isomer, unassigned; ent-2) [Example 262, 1-(1-(1H-Benzo[d]imidazol-2-yl)-2-(4-bromo-3-fluorophenyl)ethyl)-3-(trans-4-hydroxycyclohexyl)urea (ent-2)] it was 0.011 µM; in that of `COc1ccc(CC(NC(=O)Nc2cc(C3CC3)nn2-c2ccccc2)c2nc3ccccc3[nH]2)cc1` (centres unmarked) [Example 405, 1-(1-(1H-benzo[d]imidazol-2-yl)-2-(4-methoxyphenyl)ethyl)-3-(3-cyclopropyl-1-phenyl-1H-pyrazol-5-yl)urea], 0.032 µM. As for `COC(=O)c1ccc(C2(NC(=O)N[C@H](Cc3ccc(OC)cc3)c3nc4ccccc4[nH]3)CC2)cc1` [Example 342, (R)-Methyl 4-(1-(3-(1-(1H-benzo[d]imidazol-2-yl)-2-(4-methoxyphenyl)ethyl)ureido)cyclopropyl)benzoate], the EC50 was 0.277 µM. In the case of `COc1ccc(C[C@@H](NC(=O)NCCC#N)c2nc3ccccc3[nH]2)cc1` [Example 69, (R)-1-(1-(1H-Benzo[d]imidazol-2-yl)-2-(4-methoxyphenyl)ethyl)-3-(2-cyanoethyl)urea] it was 0.637 µM; in that of `COc1ccc(C[C@@H](NC(=O)NC2CCN(C3CCCCC3)CC2)c2nc3ccccc3[nH]2)cc1` [Example 90, (R)-1-(1-(1H-Benzo[d]imidazol-2-yl)-2-(4-methoxyphenyl)ethyl)-3-(1-cyclohexylpiperidin-4-yl)urea], 0.023 µM; in that of `COc1ccc(CC(NC(=O)N[C@H]2CC[C@](C)(O)CC2)c2nc3ccccc3[nH]2)c(F)c1F` (mixture of isomers) [Example 252, 1-(1-(1H-Benzo[d]imidazol-2-yl)-2-(2,3-difluoro-4-methoxyphenyl)ethyl)-3-(trans-4-hydroxy-4-methylcyclohexyl)urea], 0.017 µM. The result for `COc1ccc(C[C@@H](NC(=O)NC2CC(C)(C)N(C)C(C)(C)C2)c2nc3ccccc3[nH]2)cc1` [Example 116, (R)-1-(1-(1H-Benzo[d]imidazol-2-yl)-2-(4-methoxyphenyl)ethyl)-3-(1,2,2,6,6-pentamethylpiperidin-4-yl)urea] reads 0.063 µM; that for `COc1ccc(CC(NC(=O)NCC2CCCC2)c2nc3ccccc3[nH]2)cc1` (centres unmarked) [Example 52, 1-(1-(1H-Benzo[d]imidazol-2-yl)-2-(4-methoxyphenyl)ethyl)-3-(cyclopentylmethyl)urea], 0.221 µM; that for `COc1ccc(C[C@@H](NC(=O)Nc2cc(C)n(C)n2)c2nc3ccccc3[nH]2)cc1` [Example 7, (R)-1-(1-(1H-Benzo[d]imidazol-2-yl)-2-(4-methoxyphenyl)ethyl)-3-(1,5-dimethyl-1H-pyrazol-3-yl)urea], 0.315 µM.

Take `O=C(N[C@H](Cc1ccc(Br)cc1)c1nc2ccccc2[nH]1)NC12CCC(O)(CC1)CC2` [Example 220, (R)-1-(1-(1H-Benzo[d]imidazol-2-yl)-2-(4-bromophenyl)ethyl)-3-(4-hydroxybicyclo[2.2.2]octan-1-yl)urea]: the EC50 came out at 0.0049 µM.

As for `COc1ccc(C[C@@H](NC(=O)NCc2nn(C)c3ccccc23)c2nc3ccccc3[nH]2)cc1` [Example 298, (R)-1-(1-(1H-Benzo[d]imidazol-2-yl)-2-(4-methoxyphenyl)ethyl)-3-((1-methyl-1H-indazol-3-yl)methyl)urea], the EC50 amounted to 0.203 µM. The result for `O=C(N[C@H](Cc1ccc(C(F)(F)F)cc1)c1nc2ccccc2[nH]1)NC12CCC(O)(CC1)CC2` [Example 255, (R)-1-(1-(1H-Benzo[d]imidazol-2-yl)-2-(4-(trifluoromethyl)phenyl)ethyl)-3-(4-hydroxybicyclo[2.2.2]octan-1-yl)urea] reads 0.027 µM.

Turning to `COc1ccc(CC(NC(=O)NC23CCC(O)(CC2)CC3)c2nc3ccc(F)cc3[nH]2)c(F)c1` (single isomer, unassigned; ent-1) [Example 263, 1-(1-(6-Fluoro-1H-benzo[d]imidazol-2-yl)-2-(2-fluoro-4-methoxyphenyl)ethyl)-3-(4-hydroxybicyclo[2.2.2]octan-1-yl)urea (ent-1)], the EC50 worked out at 0.0014 µM. The result for `COc1ccc(C[C@@H](NC(=O)N[C@H]2CCCC[C@@H]2CO)c2nc3ccccc3[nH]2)cc1` (relative stereo) [Example 32, 1-((R)-1-(1H-Benzo[d]imidazol-2-yl)-2-(4-methoxyphenyl)ethyl)-3-((1 S*,2S*)-2-(hydroxymethyl)cyclohexyl)urea] reads 0.013 µM; that for `CCn1ccc(C(C)NC(=O)N[C@H](Cc2ccc(OC)cc2)c2nc3ccccc3[nH]2)n1` (stereo partly drawn) [Example 289, 1-((R)-1-(1H-Benzo[d]imidazol-2-yl)-2-(4-methoxyphenyl)ethyl)-3-(1-(1-ethyl-1H-pyrazol-3-yl)ethyl)urea], 0.059 µM; that for `COc1ccc(C[C@@H](NC(=O)N[C@@H](C)c2ccccc2OC)c2nc3ccccc3[nH]2)cc1` [Example 326, 1-((R)-1-(1H-Benzo[d]imidazol-2-yl)-2-(4-methoxyphenyl)ethyl)-3-((S)-1-(2-methoxyphenyl)ethyl)urea], 0.046 µM. In the case of `COc1ccc(CC(NC(=O)NCc2ccon2)c2nc3ccccc3[nH]2)cc1` (centres unmarked) [Example 384, 1-(1-(1H-Benzo[d]imidazol-2-yl)-2-(4-methoxyphenyl)ethyl)-3-(isoxazol-3-ylmethyl)urea] it was 1.22 µM; in that of `COc1ccc(C[C@@H](NC(=O)NC23CCC(O)(CC2)CC3)c2nc3ccccc3[nH]2)cc1` [Example 166, (R)-1-(1-(1H-Benzo[d]imidazol-2-yl)-2-(4-methoxyphenyl)ethyl)-3-(4-hydroxybicyclo[2.2.2]octan-1-yl)urea], 0.0021 µM; in that of `COc1ccc(C[C@@H](NC(=O)NCC(c2ccccc2)N2CCOCC2)c2nc3ccccc3[nH]2)cc1` (stereo partly drawn) [Example 215, 1-((R)-1-(1H-Benzo[d]imidazol-2-yl)-2-(4-methoxyphenyl)ethyl)-3-(2-morpholino-2-phenylethyl)urea], 0.0089 µM.

`COc1ccc(C[C@@H](NC(=O)N[C@@H](C)C2CCCCC2)c2nc3ccccc3[nH]2)cc1` [Example 347, 1-((R)-1-(1H-Benzo[d]imidazol-2-yl)-2-(4-methoxyphenyl)ethyl)-3-((S)-1-cyclohexylethyl)urea]: the EC50 is 0.365 µM.
